Test results published in ChEMBL document CHEMBL3639166, “Heteroaryloxyheterocyclyl compounds as PDE10 inhibitors” (2013).

Molecular target: T1, cAMP and cAMP-inhibited cGMP 3',5'-cyclic phosphodiesterase 10A (Rattus norvegicus, UniProt Q9QYJ6)
T1 sequence (Q9QYJ6 whole entry): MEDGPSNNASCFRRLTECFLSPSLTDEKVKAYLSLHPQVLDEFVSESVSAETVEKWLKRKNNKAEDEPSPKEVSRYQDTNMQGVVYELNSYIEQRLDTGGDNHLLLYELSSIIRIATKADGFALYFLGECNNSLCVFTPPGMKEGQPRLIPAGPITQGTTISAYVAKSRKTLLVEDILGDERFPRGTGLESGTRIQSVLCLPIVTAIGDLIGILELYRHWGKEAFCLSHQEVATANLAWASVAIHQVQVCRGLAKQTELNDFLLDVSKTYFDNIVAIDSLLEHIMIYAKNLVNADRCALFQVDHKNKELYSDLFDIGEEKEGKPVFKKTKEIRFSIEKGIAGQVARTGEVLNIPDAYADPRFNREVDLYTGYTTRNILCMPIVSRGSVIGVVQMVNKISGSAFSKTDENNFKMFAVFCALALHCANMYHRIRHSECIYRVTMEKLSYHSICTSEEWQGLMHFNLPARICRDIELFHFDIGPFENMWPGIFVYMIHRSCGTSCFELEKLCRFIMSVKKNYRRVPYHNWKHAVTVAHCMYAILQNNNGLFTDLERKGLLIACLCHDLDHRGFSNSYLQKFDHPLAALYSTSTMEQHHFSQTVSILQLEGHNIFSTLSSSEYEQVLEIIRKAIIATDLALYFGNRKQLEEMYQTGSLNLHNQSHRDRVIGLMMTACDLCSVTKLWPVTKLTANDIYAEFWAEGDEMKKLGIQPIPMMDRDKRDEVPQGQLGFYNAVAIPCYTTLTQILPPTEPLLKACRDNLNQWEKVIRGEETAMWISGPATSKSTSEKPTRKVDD
Assay: Enzyme Inhibition Assay: Enzyme activity: An IMAP TR-FRET assay was used to analyze the enzyme activity (Molecular Devices Corp., Sunnyvale, Calif).

| Compound | IC50 [nM] |
| --- | --- |
| Cc1cc(-c2nccnc2OC2CN(c3ccc4ccccc4n3)C2)ccn1 | 12.7 |
| Nc1ncc2cc(-c3nccnc3OC3CN(c4ccc5ccccc5n4)C3)ccc2n1 | 3.3 |
| COC(=O)N1CCC(c2nccnc2OC2CN(c3ccc4ccccc4n3)C2)CC1 | 158 |
| CC(=O)N1CCC(c2nc3ccccc3nc2OC2CN(c3ccc4ccccc4n3)C2)CC1 | 2.9 |
| O=C1CCC(c2nccnc2OC2CN(C(=O)c3nc4ccccc4[nH]3)C2)CC1 | 114 |
| COc1ccc(-c2nccnc2OC2CN(c3ccc4ccccc4n3)C2)cn1 | 25.4 |
| c1ccc(-c2ccc(-c3nccnc3OC3CN(c4ccc5ccccc5n4)C3)s2)cc1 | 254 |
| COc1ncc(-c2nccnc2OC2CN(c3ccc4ccccc4n3)C2)cn1 | 42.8 |
| c1ccc2nc(N3CC(Oc4nccnc4-c4ccc(OCC5CC5)nc4)C3)ccc2c1 | 50.2 |
| COc1cccc(-c2cnc(N3CCC(CO)CC3)nc2OC2CN(c3ccc4ccccc4n3)C2)c1 | 3.3 |
| COc1ncccc1-c1cnc(N2CCC(CO)CC2)nc1OC1CN(c2ccc3ccccc3n2)C1 | 0.6 |
| Cc1ccc(-c2cnc(N3CCC(CO)CC3)nc2OC2CN(c3ccc4ccccc4n3)C2)cn1 | 0.2 |
| CC(C)(C)OC(=O)N1CCC=C(c2nccnc2OC2CN(C(=O)c3nc4ccccc4[nH]3)C2)C1 | 227 |
| CC(C)(C)OC(=O)N1C=C(c2nccnc2OC2CN(C(=O)c3nc4ccccc4[nH]3)C2)CCC1 | 36.5 |
| COc1cccc(-c2nc3ccccc3nc2OC2CN(c3ccc4ccccc4n3)C2)c1 | 6.68 |
| COc1ncccc1-c1nc2ccccc2nc1OC1CN(c2ccc3ccccc3n2)C1 | 5.5 |

| Compound | IC50 [nM] |
| --- | --- |
| c1ccc(-c2nccc(OC3CN(c4ccc5ccccc5n4)C3)n2)nc1 | 109 |
| COCC(=O)N1CCC(c2nccnc2OC2CN(c3ccc4ccccc4n3)C2)CC1 | 165 |
| CC(=O)N1CCC(c2cc(F)cnc2OC2CN(c3ccc4ccccc4n3)C2)CC1 | 64.8 |
| CC(=O)N1CCC(c2cccnc2OC2CN(c3ccc4ccccc4n3)C2)CC1 | 68.8 |
| CC(=O)N1CC=C(c2nccnc2OC2CCN(C(=O)c3nc4ccccc4[nH]3)CC2)CC1 | 71.8 |
| CC(=O)N1CCCC(c2cccnc2OC2CN(C(=O)c3nc4ccccc4[nH]3)C2)C1 (stereo not given) | 6.47 |
| CC(=O)N1CCC=C(c2nccnc2OC2CN(C(=O)c3nc4ccccc4[nH]3)C2)C1 | 121 |
| CC(=O)N1CCC(c2cnc(N3CCC(CO)CC3)nc2OC2CN(c3ccc4ccccc4n3)C2)CC1 | 0.39 |
| CC(C)(C)OC(=O)N1CC(Oc2ncccc2[C@H]2CC[C@H](O)CC2)C1 | 15.8 |
| CC(=O)N1CC=C(c2nccnc2OC2CN(C(=O)c3cc(C)c[nH]3)C2)CC1 | 250 |
| OCC1CCN(c2nccc(OC3CN(c4ccc5ccccc5n4)C3)n2)CC1 | 14.2 |
| O=C(c1nc2ccccc2[nH]1)N1CC[C@@H](Oc2nccnc2C2CCOCC2)C1 | 2780 |
| O=C(c1ccncn1)N1CC(Oc2ncccc2C2=CCOCC2)C1 | 990 |
| Cc1cccc(C(=O)N2CCC(Oc3ncccc3C3CCOCC3)CC2)n1 | 1180 |
| O=C(c1nc2ccccc2s1)N1CCC(Oc2ncccc2C2CCOCC2)CC1 | 324 |
| O=C(c1nc2ccccc2[nH]1)N1CC[C@H](Oc2ncccc2C2=CCOCC2)C1 | 715 |

Continued by falling IC50, values first:

| IC50 [nM] | Compound |
| --- | --- |
| 10200 | CC(=O)N1CCC(c2cccnc2OC2CN(C(=O)OC(C)(C)C)C2)CC1 |
| 8890 | O=C(c1cc(Cl)ccn1)N1CCC(Oc2ncccc2C2CCOCC2)CC1 |
| 7940 | CC(=O)N1CCCC(c2cccnc2OC2CN(C(=O)c3cc(C)c[nH]3)C2)C1 (stereo not given) |
| 7640 | COc1cnccc1-c1cccnc1OC1CN(C(=O)OCc2ccccc2)C1 |
| 4260 | O=C(c1ccc[nH]1)N1CCC(Oc2ncccc2C2CCOCC2)CC1 |
| 3670 | O=C(c1ncc[nH]1)N1CCC(Oc2ncccc2C2CCOCC2)CC1 |
| 1650 | Cc1ccc(C(=O)N2CCC(Oc3ncccc3C3CCOCC3)CC2)nc1 |
| 1640 | CC(=O)N1CCC(c2nccnc2OC2CCN(c3ccc4ccccc4n3)CC2)CC1 |
| 1260 | O=C(c1ccccn1)N1CCC(Oc2ncccc2C2CCOCC2)CC1 |
| 1000 | Cc1cccnc1C(=O)N1CCC(Oc2ncccc2C2CCOCC2)CC1 |
| 886 | CC(=O)N1CCCC(c2cccnc2OC2CN(C(=O)c3cc4ccccc4[nH]3)C2)C1 (stereo not given) |
| 767 | O=C(c1nc2ccccc2[nH]1)N1CC[C@@H](Oc2ncccc2C2=CCOCC2)C1 |
| 582 | CC(=O)N1CC=C(c2nccnc2OC2CN(C(=O)OCc3ccccc3)C2)CC1 |
| 363 | c1ccc(Cc2ccc3oc(-c4nccnc4OC4CN(c5ccc6ccccc6n5)C4)cc3c2)cc1 |
| 282 | COCC#Cc1nccnc1OC1CN(c2ccc3ccccc3n2)C1 |
| 230 | O=C(c1nc2ccccc2[nH]1)N1CCC(Oc2nccnc2-c2ccncc2)CC1 |
| 222 | O=C(c1nc2ccccc2[nH]1)N1CC(Oc2nccnc2C2=CCOCC2)C1 |
| 210 | CC(=O)N1CC=C(c2nccnc2OC2CN(C(=O)c3ccc[nH]3)C2)CC1 |
| 208 | CS(=O)(=O)N1CCC(c2nccnc2OC2CN(c3ccc4ccccc4n3)C2)CC1 |
| 174 | CC(C)Oc1cc(F)cc(-c2nccnc2OC2CN(c3ccc4ccccc4n3)C2)c1 |
| 156 | Cc1cc(-c2nccnc2OC2CN(C(=O)c3nc4ccccc4[nH]3)C2)ccn1 |
| 144 | Fc1cnc(OC2CN(c3ccc4ccccc4n3)C2)c(N2CCC(F)(F)CC2)c1 |

| IC50 [nM] | Compound |
| --- | --- |
| 126 | O=C(c1cc2ccccc2cn1)N1CCC(Oc2ncccc2C2CCOCC2)CC1 |
| 118 | Cc1ccnc(C(=O)N2CCC(Oc3ncccc3C3CCOCC3)CC2)c1 |
| 95.3 | FC1(F)CCN(c2nccnc2OC2CN(c3ccc4ccccc4n3)C2)C1 |
| 92.1 | FC1(F)CCCN(c2nccnc2OC2CN(c3ccc4ccccc4n3)C2)C1 |
| 87 | c1ccc2nc(N3CC(Oc4nccnc4-c4cccc5ncccc45)C3)ccc2c1 |
| 76.7 | CC(O)C1CCN(c2ccnnc2OC2CN(c3ccc4ccccc4n3)C2)CC1 (stereo not given) |
| 67.8 | CC(=O)N1CCC(c2cc(C)cnc2OC2CN(c3ccc4ccccc4n3)C2)CC1 |
| 57.3 | Cc1cccc(-c2nccnc2OC2CN(c3ccc4ccccc4n3)C2)c1 |
| 41.4 | CC(C)C(=O)N1CCCC(c2cccnc2OC2CN(C(=O)c3nc4ccccc4[nH]3)C2)C1 (stereo not given) |
| 41 | CC(=O)N1CCCC(c2cccnc2OC2CN(C(=O)c3ccccn3)C2)C1 (stereo not given) |
| 35.9 | FC1(F)CCN(c2cccnc2OC2CN(c3ccc4ccccc4n3)C2)CC1 |
| 23.3 | OCc1cccc(-c2nccnc2OC2CN(c3ccc4ccccc4n3)C2)c1 |
| 21.1 | O=C(c1nc2ccccc2[nH]1)N1CC(Oc2ncccc2[C@H]2CC[C@@H](O)CC2)C1 |
| 12 | c1cnc(OC2CN(c3ccc4ccccc4n3)C2)c(N2CCOCC2)c1 |
| 10.4 | CC(=O)N1CC=C(c2nccnc2OC2CN(C(=O)c3nc4ccccc4[nH]3)C2)CC1 |
| 8.45 | OCc1ccc(-c2nccc(OC3CN(c4ccc5ccccc5n4)C3)n2)cc1 |
| 4.23 | FC1(F)CCN(c2nccnc2OC2CN(c3ccc4ccccc4n3)C2)CC1 |
| 1.1 | OCC1CCN(c2ncc(C3=CCOCC3)c(OC3CN(c4ccc5ccccc5n4)C3)n2)CC1 |
| 0.864 | O=C(c1nc2ccccc2[nH]1)N1CC(Oc2ncccc2C2=CCOCC2)C1 |
| 0.3 | Cc1cc(-c2cnc(N3CCC(CO)CC3)nc2OC2CN(c3ccc4ccccc4n3)C2)ccn1 |
| 0.3 | CC(C)(C)OC(=O)N1CC=C(c2cnc(N3CCC(CO)CC3)nc2OC2CN(c3ccc4ccccc4n3)C2)CC1 |
